For orientation: GI50 means the concentration that inhibits growth by half.

The values that follow come from patent US8309599B2, “Synthesis of FR901464 and analogs with antitumor activity” (University of Pittsburgh-Of The Commonwealth System of …, priority 2006, dated 2012).

For one data set, the system named is A549. In kind it is cell-based. The following applies: Homo sapiens; A549, 3 to 5 days.
The subject of a further data set is MDA-MB-231. Type of data set: cell-based. The following applies: Homo sapiens; MDA-MB-231, 3 to 5 days.
Data set [1] concerns MCF-7. The data set can be described thus: cells. The following applies: Homo sapiens, MCF7.
Another data set relates to PC-3. Type of data set: cell-based. The following applies: Homo sapiens; PC-3, 3 to 5 days.
In another data set the test system is HCT116. In kind it is cell-based. The following applies: Homo sapiens, HCT-116; HCT116, 3 to 5 days.
A further data set relates to DU145. Type of data set: cell-based. The following applies: Homo sapiens, DU-145; DU145, 3 to 5 days.
In a further data set the test system is H1299. In kind it is cell-based. The following applies: Homo sapiens, NCI-H1299; H1299, 3 to 5 days.
The subject of data set [2] is MCF-7. The following applies: MCF-7, 5-day assay.
The test system of data set [3] is HeLa cells. Nature of the data set: High-content analysis of mitotic arrest and microtubule perturbation. Type of data set: cell-based. The following applies: HeLa cells treated for 21 h.
Another data set deals with HeLa. Type of data set: cell-based. The following applies: Homo sapiens, 3 to 5 days.
A further data set concerns A-549 lung cancer cells. Nature of the data set: High-content selectivity study, cancer cells.
The subject of data set [4] is multidrug resistant subline VCRd5L. Nature of the data set: Antiproliferative activity in multidrug resistant cells. Type of data set: cell-based, Chinese hamster. The following applies: for GI50: Cricetulus griseus, read-out: average GI50 VCRd5L.
The subject of data set [5] is MCF-7 cells. The data set can be described thus: MCF-7 cell count with hemacytometer and trypan blue. The following applies: for viability at 0.01 µM: Homo sapiens; for percent of cells present: 200 nM positive control.
Procedure: MCF-7 cells were used in this experiment.
Cell proliferation was measured by manual counting using a hemacytometer by trypsinizing and staining with trypan blue.
A further data set has as its system A549 cells. Nature of the data set: Reversibility test (drug washout, MTS). Type of data set: cell-based. The following applies: 1 nM, washout at intervals, read at 72 h. Here is the method: (§1) One concentration was used in each experiment for all times examined. […] At the desired time intervals, the media containing the drug was removed, the wells were washed 5 times with new media and 200 μL of new media containing 1% DMSO was added.
(§2) All cells were treated at the same time meayamycin at 1 nM concentration. At the given time interval, the drug-containing media was removed and replaced with fresh media. Cell proliferation was measured at the last time interval (72 h).

Data set [6] deals with HeLa cells. The data set can be described thus: Reversibility test (drug washout, MTS). The following applies: preliminary result. Type of data set: cell-based. The procedure: as §1, §2
Data set [7] relates to MCF-7 cells. Nature of the data set: Reversibility test (drug washout, MTS). In kind it is cell-based. The following applies: 1 nM, washout at intervals, read at 72 h. Here is the method: as §1, §2
Data set [8] concerns IMR-90 human lung fibroblasts. The data set can be described thus: High-content selectivity study, normal cells.
Data set [9] has as its system DC3F transformed Chinese hamster cells. Nature of the data set: Antiproliferative activity in parental cells. In kind it is cell-based. The following applies: for GI50: Cricetulus griseus, DC3F, read-out: average GI50 DC3F; for growth inhibition of parental DC3F cells: in words.
Data set [10] has as its system MCF-7 cells. The following applies: read-out: LC50 (apparent apoptosis); cited from earlier work.
The conditions of data set [11]: mouse model; cited from earlier work.
In data set [12] the test system is mRNA levels of p53, p21, c-myc, and E2F-1. The following applies: MCF-7 cells at 20 nM; cited from earlier work.
The mark [13] stands for this setting: MCF7, 24 h, read-out: Percent Viable Cells, 10 nM, 24 hours.
The mark [14] stands for this setting: MCF7, 48 h, read-out: Percent Viable Cells, 10 nM, 48 hours.

Where two headings read alike, the source gives them in different places.

As for `CC(=O)O[C@@H](C)/C=C\C(=O)N[C@@H]1CC[C@H](C/C=C(C)/C=C/[C@H]2OC(C)(C)C[C@@]3(CO3)[C@@H]2O)O[C@@H]1C` [12-desmethyl meayamycin], the GI50 in the data set on A549 was determined as 1 nM; in the data set on MDA-MB-231, 0.7 nM; in the data set with MCF-7 [1] it was 0.3 nM; in the data set on PC-3, 1.6 nM; in the data set on HCT116, 2.2 nM; with DU145 it was 3.5 nM. The compound also came in with a GI50 with H1299 of 2.8 nM.
On to `CC(/C=C/[C@H]1OC(C)(C)C[C@@]2(CO2)[C@@H]1O)=C\C[C@@H]1O[C@H](C)[C@H](NC(=O)/C=C\[C@H](C)OC(=O)N2CCOCC2)C[C@@H]1C` [meayamycin B, (2Z,4S)-4-[(morpholinylcarbonyl)oxy]-N-[(2R,3R,5S,6S)-tetrahydro-6-[(2E,4E)-5-[(3R,4R,5R)-4-hydroxy-7,7-dimethyl-1,6-dioxaspiro[2.5]oct-5-yl]-3-methyl-2,4-pentadien-1-yl]-2,5-dimethyl-2H-pyran-3-yl]-2-pentenamide], for which the “times more potent than meayamycin in cultured cells” value in the data set on MCF-7 [2] came out at 2 times.
In the case of `CC(=O)O[C@@H](C)/C=C\C(=O)N[C@@H]1C[C@H](C)[C@H](C/C=C(C)/C=C/[C@H]2OC(C)(C)C[C@@]3(CO3)[C@@H]2O)O[C@@H]1C` [meayamycin], the GI50 with A549 stood at 0.11 nM; with MDA-MB-231 it was 0.024 nM; with MCF-7 [1], 0.01 nM; with HeLa, 0.24 nM; in data set [4] it was 0.71 ± 0.27 nM; in the data set on PC-3, 0.058 nM. The GI50 in the data set on HCT116 is 0.044 nM; with DU145, 0.47 nM; in the data set with H1299, 0.091 nM; in data set [9], 0.46 ± 0.09 nM. The mitotic arrest result with HeLa cells [3] is given as “neither FR 901464 nor meayamycin were mitotic arresters”. Besides, the cell loss entry with A-549 lung cancer cells (10 nM, 24 hours, compared with normal cells) is “more pronounced cell loss”. Moreover, the nuclear morphology result in the data set on A-549 lung cancer cells (24 h) is recorded as “did not cause nuclear fragmentation but instead enlarged nuclei”. Moreover, the p53 induction result in the data set on A-549 lung cancer cells (24 h) is on record as “p53 induction”; in data set [8] (24 h) it was “magnitude of response was smaller”. The caspase cleavage entry in the data set with A-549 lung cancer cells (24 h, some experiments) is listed as “low level of caspase cleavage”. The “growth inhibition of A549 cells” value in the data set on A-549 lung cancer cells (FIG. 4) is “inhibits the growth of A549 cells”. In data set [4], the “activity in the multidrug resistant cells” value is “retained picomolar activity”. In data set [4], this compound showed a fold resistance of 1.5 fold. In addition, the “Percent Viable Cells” value in the data set with MCF-7 cells [5] (10 nM, 48 hours, listed as Compound IX, 0.01 µM) came to 26%. Also, the viability at 0.01 µM in the data set on MCF-7 cells [5] (setting [13]) was found to be 46%; in the data set with MCF-7 cells [5] (setting [14]), 27%. Besides, the “reversibility of growth inhibition” value is listed as “irreversibly inhibits the growth” in the data set with A549 cells, “reversibly inhibits the growth” with HeLa cells [6] and “irreversibly inhibits the growth” with MCF-7 cells [7]. In addition, the “growth inhibition of normal lung cells (IMR-90)” value in data set [8] (FIG. 5) is reported as “only mildly”. Moreover, the “growth inhibition of parental DC3F cells” value in data set [9] was “active in the subnanomolar range”.
As to `CC[C@]1(O)C[C@H]2CN(CCc3c([nH]c4ccccc34)[C@@](C(=O)OC)(c3cc4c(cc3OC)N(C=O)[C@H]3[C@@](O)(C(=O)OC)[C@H](OC(C)=O)[C@]5(CC)C=CCN6CC[C@]43[C@@H]65)C2)C1` [vincristine], the mitotic arrest entry in the data set on HeLa cells [3] is “caused mitotic arrest”. Further, in data set [4], the “fold resistant (VCRd-5L cells)” value was more than 250 fold. For the same compound, the GI50 in [4] (average ± SD (n)) is more than 5000 nM; in data set [9] (average ± SD (n)), 18.8 ± 16.2 nM.
As to `CC(=O)O[C@@H](C)/C=C\C(=O)N[C@@H]1C[C@H](C)[C@H](C/C=C(C)/C=C/[C@H]2O[C@](C)(O)C[C@@]3(CO3)[C@@H]2O)O[C@@H]1C` [FR901464], in the data set with HeLa cells [3], the mitotic arrest result is reported as “neither FR 901464 nor meayamycin were mitotic arresters”. In addition, the CC50 in the data set with MCF-7 cells [10] is 0.5 nM. Besides, in the data set with MCF-7 cells [5] (setting [13]), the viability at 0.01 µM was determined as 81%. Moreover, in the data set with MCF-7 cells [5] (setting [14]), the viability at 0.01 µM is 49%. In [11], the “antitumor activity, active dose” value was 0.056 to 0.18 mg/kg. In addition, the “mRNA levels of p53, p21, c-myc, and E2F-1” value in data set [12] is recorded as “lowers the mRNA levels”. Besides, in [9], the GI50 was found to be 7.49 ± 1.26 nM and the “growth inhibition of parental DC3F cells” value is recorded as “potently inhibited the growth”.
For `CC(/C=C/[C@H]1OC(C)(C)C[C@@]2(CO2)[C@@H]1O)=C\C[C@@H]1O[C@H](C)[C@H](NC(=O)/C=C\[C@H](C)O)C[C@@H]1C` [4′-desacetyl meayamycin], the GI50 with A549 was found to be 0.74 nM; in the data set with MDA-MB-231 it was 0.35 nM; in the data set with MCF-7 [1] it was 0.48 nM; with HeLa, 1 nM; in the data set with H1299 it was 1 nM.
`CC(=O)O[C@@H](C)/C=C\C(=O)N[C@@H]1CO[C@H](C/C=C(C)/C=C/[C@H]2OC(C)(C)C[C@@]3(CO3)[C@@H]2O)O[C@@H]1C` [acetal meayamycin] had a GI50 in the data set on MCF-7 [1] of 2.5 nM.
With `CC(=O)O[C@H]1C(=O)[C@@]2(C)[C@H]([C@H](OC(=O)c3ccccc3)[C@]3(O)C[C@H](OC(=O)[C@H](O)[C@@H](NC(=O)c4ccccc4)c4ccccc4)C(C)=C1C3(C)C)[C@]1(OC(C)=O)CO[C@@H]1C[C@@H]2O` [paclitaxel], in the data set on HeLa cells [3], the mitotic arrest result is listed as “caused mitotic arrest”. Further, the “fold resistant (VCRd-5L cells)” value in data set [4] is reported as 60 fold. The GI50 was determined as 2680 ± 109 nM in data set [4] (average ± SD (n)) and 45.4 ± 11.3 nM in data set [9] (average ± SD (n)). In addition, the “percent of cells present” value in the data set on MCF-7 cells [5] (24 hour) is recorded as 70%; in the data set on MCF-7 cells [5] (48 hour) it was 52%.
